These are literature values, as cited in article PMC9175271, “Live-cell microscopy or fluorescence anisotropy with budded baculoviruses—which way to go with measuring ligand binding to M4 muscarinic receptors?” (Open Biology, 2022).

This data set deals with M4 receptor. To be noted: mean of literature values, per ligand as in column ref.; ref [50], [63], [74]–[89].

Consider `CN1[C@@H]2C[C@@H](OC(=O)[C@H](CO)c3ccccc3)C[C@H]1[C@@H]1O[C@@H]12` [scopolamine], for which the “pKi ± s.e.m. (radioligand)” value is listed as 9.28 ± 0.19.
